Reference: patent US5591837A, “5-O-desosaminylerythronolide a derivative” (Taisho Pharmaceutical Co., Ltd., priority 1992, dated 1997)
In brackets after ≈: the same amount, converted by molar mass. Where two headings read alike, the source gives them in different places. Blank lines part the entries; values can stand above or below the compound they belong to.

Legend:
[1] = tested on: S. aureus 209P-JC; assay: In vitro antibacterial activity (MIC), S. aureus 209P-JC; assay type: cell-based; conditions: Staphylococcus aureus, read-out: MIC value (Minimum Inhibitory Concentration)
Procedure: (§1) The in vitro antibacterial activity of the compound of the present invention against various experimental microorganism was measured using sensitive disc media (produced by Eiken Chemical Co.) according to the MIC measuring method specified by the Japan Chemotherpeutic Society. Comparative drug 1:3-deoxy-11-{2-[methyl(benzyl)amino]ethyl}amino-3-oxo-5-O-desosaminyl-6-O-methylerythronolide A 11-N,12-O-cyclic carbamate (described in EP patent No. 0487411), Comparative drug 2:3-deoxy-3-oxo-5-O-desosaminyl-6-O-methylerythronolide A 11,12-cyclic carbonate (described in EP patent No. 0487411), Comparative drug 3:6-O-methylerythromycin A and Comparative drug 4:azithromycin were used.

[2] = tested on: S. aureus Smith 4; assay: In vivo antibacterial activity: protection effect against infection with S. aureus Smith 4 in mice; parameters: species or system male ICR mice; conditions: oral, 1 hour after inoculation, 7 days
Procedure: The injection protection effect of the compound of the present invention against infectious bacteria (S. aureus Smith 4) was studied using 8 male ICR mice, 4-week-old, for each group and using Comparative drugs 1, 2 and 3 (as described in Experiment 1). Infectious bacteria (S. aureus Smith 4) were incubated for 18 hours, and diluted with a saline solution containing 5% mucin and heart infusion agar, and 0.5 ml of which was inoculated intraperitoneally to mice. An hour after inoculation of bacteria, the drug suspended in 5% gum arabic was administered orally, followed by judgement of life and death during 7 days.

[3] = tested on: H. influenzae ATCC19418; assay: In vitro antibacterial activity (MIC), H. influenzae ATCC19418; assay type: cell-based; conditions: Haemophilus influenzae, sensitive disc media, read-out: MIC value (Minimum Inhibitory Concentration)
Procedure: as §1

[4] = tested on: S. aureus Smith 4; assay: In vitro antibacterial activity (MIC), S. aureus Smith 4; assay type: cell-based; conditions: Staphylococcus aureus
Procedure: as §1

[5] = tested on: S. aureus B1; assay: In vitro antibacterial activity (MIC), S. aureus B1; assay type: cell-based; conditions: Staphylococcus aureus
Procedure: as §1

[6] = tested on: E. faecalis CSJ 1212; assay: In vitro antibacterial activity (MIC), E. faecalis CSJ 1212; assay type: cell-based; conditions: Enterococcus faecalis
Procedure: as §1

[7] = Concentration in mouse serum after oral administration; assay type: in vivo, male ICR mice; conditions: dose not given; for AUC / Cmax: mouse serum; for concentration at 0.25 h / concentration at 0.5 h / concentration at 1 h / concentration at 2 h / concentration at 4 h / concentration at 6 h: mouse, serum; for concentration at 0.5 h: 0.50 hr
Procedure: Concentration of the compound of the present invention in mouse serum was determined by using 10 male ICR mice, 4-week-old, for each group and using Comparative drugs 2 and 3 (as described in Experiment 1). The drug suspended in 5% gum arabic was administered orally to mice, the blood was collected with lapse of time, and the serum was separated. Concentration of the drug in the serum was measured by using M. luteus ATCC 9341 as approved bacteria according to the papar-disc method.

[8] = SMITH4, S. aureus Smith 4, sensitive disc media, read-out: MIC value (Minimum Inhibitory Concentration)
[9] = S. aureus B1, sensitive disc media, read-out: MIC value (Minimum Inhibitory Concentration)
[10] = S. aureus 209P-JC, sensitive disc media
[11] = CSJ1212, E. faecalis CSJ 1212, sensitive disc media, read-out: MIC value (Minimum Inhibitory Concentration)
[12] = B1, read-out: MIC value (Minimum Inhibitory Concentration)

SMILES: CC[C@H]1OC(=O)[C@H](C)C(=O)[C@H](C)[C@@H](O[C@@H]2O[C@H](C)C[C@H](N(C)C)[C@H]2O)[C@](C)(OC)C[C@@H](C)C(=O)[C@H](C)[C@H]2N(CCN(C)Cc3ccccc3)C(=O)O[C@]12C [Comparative drug 1, 3-deoxy-11-{2-[methyl(benzyl)amino]ethyl}amino-3-oxo-5-O-desosaminyl-6-O-methylerythronolide A 11-N,12-O-cyclic carbamate]
MIC ([1]; 209P): 0.1 µg/mL (≈ 0.132 µM)
Number of Survival (n = 8) ([2]; 0.1 mg/mouse): 2
Number of Survival (n = 8) ([2]; 0.4 mg/mouse): 2
Number of Survival (n = 8) ([2]; 1.6 mg/mouse): 7
MIC [3]: 6.25 µg/mL (≈ 8.22 µM)
MIC [4, 8]: 0.1 µg/mL (≈ 0.132 µM)
MIC [5, 9]: 0.39 µg/mL (≈ 0.513 µM)
MIC ([6]; CSJ1212, read-out: MIC value (Minimum Inhibitory Concentration)): 0.1 µg/mL (≈ 0.132 µM)

SMILES: CC[C@H]1OC(=O)[C@H](C)C(=O)[C@H](C)[C@@H](O[C@@H]2O[C@H](C)C[C@H](N(C)C)[C@H]2O)[C@](C)(OC)C[C@@H](C)C(=O)[C@H](C)[C@H]2OC(=O)O[C@@]21C [Comparative drug 2, 3-deoxy-3-oxo-5-O-desosaminyl-6-O-methylerythronolide A 11,12-cyclic carbonate]
MIC [1, 10]: 0.1 µg/mL (≈ 0.163 µM)
Number of Survival (n = 8) ([2]; 0.1 mg/mouse): 2
Number of Survival (n = 8) ([2]; 0.4 mg/mouse): 8
Number of Survival (n = 8) ([2]; 1.6 mg/mouse): 8
MIC [3]: 25 µg/mL (≈ 40.7 µM)
MIC [4, 8]: 0.1 µg/mL (≈ 0.163 µM)
MIC [5, 9]: 1.56 µg/mL (≈ 2.54 µM)
MIC [6, 11]: 0.05 µg/mL (≈ 0.0815 µM)
Concentration in mouse serum ([7]; 6 hr): 0 ng/mL
AUC [7]: 1370 ng·h/mL
Cmax [7]: 410 ng/mL
concentration at 0.25 h [7]: 310 ng/mL
concentration at 0.5 h [7]: 410 ng/mL
concentration at 1 h [7]: 270 ng/mL
concentration at 2 h [7]: 280 ng/mL
concentration at 4 h [7]: 260 ng/mL

SMILES: CC[C@H]1OC(=O)[C@H](C)[C@@H](O[C@H]2C[C@@](C)(OC)[C@@H](O)[C@H](C)O2)[C@H](C)[C@@H](O[C@@H]2O[C@H](C)C[C@H](N(C)C)[C@H]2O)[C@](C)(OC)C[C@@H](C)C(=O)[C@H](C)[C@@H](O)[C@]1(C)O [Comparative drug 3, 6-O-methylerythromycin A]
MIC [1, 10]: 0.1 µg/mL (≈ 0.134 µM)
Number of Survival (n = 8) ([2]; 0.1 mg/mouse): 3
Number of Survival (n = 8) ([2]; 0.4 mg/mouse): 6
Number of Survival (n = 8) ([2]; 1.6 mg/mouse): 8
MIC [3]: 12.5 µg/mL (≈ 16.7 µM)
MIC [4, 8]: 0.1 µg/mL (≈ 0.134 µM)
MIC [5, 12]: > 100 µg/mL
MIC [6, 11]: 3.13 µg/mL (≈ 4.18 µM)
AUC [7]: 880 ng·h/mL
Cmax [7]: 340 ng/mL
concentration at 0.25 h [7]: 290 ng/mL
concentration at 0.5 h [7]: 330 ng/mL
concentration at 1 h [7]: 340 ng/mL
concentration at 2 h [7]: 110 ng/mL
concentration at 4 h [7]: 110 ng/mL
concentration at 6 h ([7]; 6 hr): 40 ng/mL

MIC [1, 10]: 20 µg/mL (≈ 26.7 µM)
MIC [3]: 6.25 µg/mL (≈ 8.34 µM)
MIC [4, 8]: 0.39 µg/mL (≈ 0.521 µM)
MIC [5, 9]: > 100 µg/mL
MIC [6, 11]: 6.25 µg/mL (≈ 8.34 µM)
SMILES: CC[C@H]1OC(=O)[C@H](C)[C@@H](O[C@H]2C[C@@](C)(OC)[C@@H](O)[C@H](C)O2)[C@H](C)[C@@H](O[C@@H]2O[C@H](C)C[C@H](N(C)C)[C@H]2O)[C@](C)(O)C[C@@H](C)CN(C)[C@H](C)[C@@H](O)[C@]1(C)O [Comparative drug 4, azithromycin]

SMILES: CC[C@H]1OC(=O)[C@H](C)C(=O)[C@H](C)[C@@H](O[C@@H]2O[C@H](C)C[C@H](N(C)C)[C@H]2O)[C@](C)(OC)C[C@@H](C)C(=O)[C@H](C)[C@H]2NC(=O)O[C@@]21C [Compound 1, 11-amino-3,11-dideoxy-3-oxo-5-O-desosaminyl-6-O-methylerythronolide A 11-N,12-O-cyclic carbamate]
MIC ([1]; 209P): 0.05 µg/mL (≈ 0.0816 µM)
Number of Survival (n = 8) ([2]; 0.1 mg/mouse): 8
Number of Survival (n = 8) ([2]; 0.4 mg/mouse): 8
Number of Survival (n = 8) ([2]; 1.6 mg/mouse): 8
MIC [3]: 6.25 µg/mL (≈ 10.2 µM)
MIC ([4]; SMITH4, read-out: MIC value (Minimum Inhibitory Concentration)): 0.1 µg/mL (≈ 0.163 µM)
MIC [5, 12]: 0.2 µg/mL (≈ 0.326 µM)
MIC [6, 11]: 0.05 µg/mL (≈ 0.0816 µM)
AUC [7]: 2900 ng·h/mL
Cmax [7]: 1170 ng/mL
concentration at 0.25 h [7]: 230 ng/mL
concentration at 0.5 h [7]: 1170 ng/mL
concentration at 1 h [7]: 770 ng/mL
concentration at 2 h [7]: 600 ng/mL
concentration at 4 h [7]: 440 ng/mL
concentration at 6 h ([7]; 6 hr): 50 ng/mL
